From patent US11576922B2, “CD73 inhibitors” (ORIC Pharmaceuticals, Inc., priority 2017, dated 2023)
pIC50: −log10 of the molar value. “And” between values parts separate entries of the source, which are not always exact repeats. Identical values can stand only once.

biological target: T1, CD73 (Homo sapiens, UniProt P21589); experiment: Example A1: Biochemical Assay (CD73 inhibition, Malachite Green detection of AMP hydrolysis); details: Biochemical IC50, CD73 0.3208 nM, AMP 15 μM, Tris-HCl pH 7.4, Malachite Green, absorbance 620 nm
T1 sequence (P21589 27-549): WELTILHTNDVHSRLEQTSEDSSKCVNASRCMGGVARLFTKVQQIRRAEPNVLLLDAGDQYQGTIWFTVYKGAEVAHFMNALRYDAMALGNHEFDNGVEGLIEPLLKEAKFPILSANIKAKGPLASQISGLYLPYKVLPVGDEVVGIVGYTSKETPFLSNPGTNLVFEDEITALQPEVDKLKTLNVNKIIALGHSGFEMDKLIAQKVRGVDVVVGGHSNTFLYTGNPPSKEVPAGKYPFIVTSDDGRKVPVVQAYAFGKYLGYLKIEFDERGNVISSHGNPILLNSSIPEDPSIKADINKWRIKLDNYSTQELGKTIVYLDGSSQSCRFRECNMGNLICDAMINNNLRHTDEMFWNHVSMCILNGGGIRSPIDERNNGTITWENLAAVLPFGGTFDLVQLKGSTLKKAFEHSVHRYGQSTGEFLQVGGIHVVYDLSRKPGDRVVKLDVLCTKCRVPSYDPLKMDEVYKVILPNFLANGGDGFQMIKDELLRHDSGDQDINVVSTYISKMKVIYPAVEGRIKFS
Procedure: Example A1: Biochemical Assay
Assay Reaction Conditions
• Assay Volume: 70 μl • Reaction Volume: 50 μl • CD73: 0.3208 nM • AMP: 15 μM • Assay Buffer: 2 5 mM Tris-HCL, pH 7.4, 0.01% Brij-35, 0.01% BSA, 5 mM MgCl2 Assay Procedure:
Made dose titration of testing compounds in assay buffer, 10 points ½ log titrations in duplicates starting at 100 μM.
Added 25 μl of CD73 to each well for a final concentration of […].
Incubated at RT for 15 min.
Added 25 μl of AMP to each well for a final concentration of 15 μM.
Incubated at RT for 10 min.
Added 10 μl of Malachite Green Reagent A, incubate at RT for 10 min.
Added 10 μl of Malachite Green Reagent B, incubate at RT for 45 min.
Read the Absorbance on Envision plate reader using excitation filter: Cy5 […].
The ability of the compounds disclosed herein to inhibit CD73 activity was quantified and the respective IC50 values were determined. Table 1 provides the biochemical IC50 values of compounds disclosed herein.

Row | Compound | pIC50
1 | O=P(O)(O)C[P@@](=O)(OC[C@H]1O[C@@H](n2nnc3c(NCc4ccccc4Cl)nc(Cl)nc32)[C@H](O)[C@@H]1O)Oc1ccccc1 [Example 33, (((R)-(((2R,3S,4R,5R)-5-(5-chloro-7-((2-chlorobenzyl)amino)-3H-[1,2,3]triazolo[4,5-d]pyrimidin-3-yl)-3,4-dihydroxytetrahydrofuran-2-yl)methoxy)(phenoxy)phosphoryl)methyl) phosphonic acid] | 6.00 to 7.00

same assay, conditions: CD73 0.3208 nM, AMP 15 μM, Tris-HCl pH 7.4, Malachite Green, absorbance 620 nm; read-out: Biochemical IC50

Row | pIC50 | Compound
2 | > 7.00 | CN(Cc1ccccc1Cl)c1nc(Cl)nc2c1nnn2[C@@H]1C[C@H](COP(=O)(O)CP(=O)(O)O)[C@@H](O)[C@H]1O [Example 21, (((((1R,2R,3S,4R)-4-(5-chloro-7-((2-chlorobenzyl)(methyl)amino)-3H-[1,2,3]triazolo[4,5-d]pyrimidin-3-yl)-2,3-dihydroxycyclopentyl)methoxy)(hydroxy)phosphoryl)methyl)phosphonic acid]
3 | > 7.00 | O=P(O)(O)CP(=O)(OCc1ccccc1)OC[C@H]1O[C@@H](n2nnc3c(NCc4ccccc4Cl)nc(Cl)nc32)[C@H](O)[C@@H]1O (stereo partly drawn) [Example 29, (((benzyloxy)(((2R,3S,4R,5R)-5-(5-chloro-7-((2-chlorobenzyl)amino)-3H-[1,2,3]triazolo[4,5-d]pyrimidin-3-yl)-3,4-dihydroxytetrahydrofuran-2-yl)methoxy)phosphoryl)methyl)phosphonic acid]
4 | > 7.00 and 6.00 to 7.00 | O=P(O)(O)CP(=O)(O)OC[C@H]1CC(n2nnc3c(NC4CCc5ccccc54)nc(Cl)nc32)[C@H](O)[C@@H]1O (stereo in doubt) [Example 35, (((((1R,2R,3S,4S)-4-(5-chloro-7-(((S)-2,3-dihydro-1H-inden-1-yl)amino)-3H-[1,2,3]triazolo[4,5-d]pyrimidin-3-yl)-2,3-dihydroxycyclopentyl)methoxy) (hydroxy)phosphoryl)methyl)phosphonic acid]
5 | > 7.00 | CN(c1nc(Cl)nc2c1cnn2[C@@H]1O[C@H](COP(=O)(O)CP(=O)(O)O)[C@@H](O)[C@H]1O)[C@@H]1CCc2ccccc21 [Example 38, (((((2R,3S,4R,5R)-5-(6-chloro-4-(((R)-2,3-dihydro-1H-inden-1-yl)(methyl)amino)-1H-pyrazolo[3,4-d]pyrimidin-1-yl)-3,4-dihydroxytetrahydrofuran-2-yl)methoxy)(hydroxy)phosphoryl)methyl)phosphonic acid]

Continued, molecule first:

Row | Compound | pIC50
6 | Nc1nc(Cl)nc2c1nnn2[C@@H]1O[C@H](COP(=O)(O)CP(=O)(O)O)[C@@H](O)[C@H]1O [Example 4, (((((2R,3S,4R,5R)-5-(7-amino-5-chloro-3H-[1,2,3]triazolo[4,5-d]pyrimidin-3-yl)-3,4-dihydroxytetrahydrofuran-2-yl)methoxy)(hydroxy)phosphoryl)methyl) phosphonic acid] | < 6.00
7 | COP(=O)(CP(=O)(O)O)OC[C@H]1O[C@@H](n2nnc3c(N(C)[C@H]4CCc5ccccc54)nc(Cl)nc32)[C@H](O)[C@@H]1O (stereo partly drawn) [Example 24, (((((2R,3S,4R,5R)-5-(5-Chloro-7-(((S)-2,3-dihydro-1H-inden-1-yl)(methyl)amino)-3H-[1,2,3]triazolo[4,5-d]pyrimidin-3-yl)-3,4-dihydroxytetrahydrofuran-2-yl)methoxy)(methoxy)phosphoryl)methyl)phosphonic acid] | > 7.00
8 | O=P(O)(O)CP(=O)(O)OC[C@H]1O[C@@H](n2nnc3c(N4CCCC[C@@H]4c4ccccc4)nc(Cl)nc32)[C@H](O)[C@@H]1O [Example 10, (((((2R,3S,4R,5R)-5-(5-chloro-7-((R)-2-phenylpiperidin-1-yl)-3H-[1,2,3]triazolo[4,5-d]pyrimidin-3-yl)-3,4-dihydroxytetrahydrofuran-2-yl)methoxy)(hydroxy)phosphoryl)methyl) phosphonic acid] | 6.00 to 7.00
9 | COP(=O)(CP(=O)(O)O)OC[C@H]1O[C@@H](n2nnc3c(NCc4ccccc4Cl)nc(Cl)nc32)[C@H](O)[C@@H]1O (stereo partly drawn) [Example 26, (((((2R,3S,4R,5R)-5-(5-chloro-7-((2-chlorobenzyl)amino)-3H-[1,2,3]triazolo[4,5-d]pyrimidin-3-yl)-3,4-dihydroxytetrahydrofuran-2-yl)methoxy)(methoxy)phosphoryl)methyl) phosphonic acid] | 6.00 to 7.00
10 | C[C@H](Nc1nc(Cl)nc2c1nnn2[C@@H]1O[C@H](COP(=O)(O)CP(=O)(O)O)[C@@H](O)[C@H]1O)c1ccccc1Cl [Example 9, (((((2R,3S,4R,5R)-5-(5-chloro-7-(((S)-1-(2-chlorophenyl)ethyl)amino)-3H-[1,2,3]triazolo[4,5-d]pyrimidin-3-yl)-3,4-dihydroxytetrahydrofuran-2-yl)methoxy)(hydroxy)phosphoryl)methyl) phosphonic acid] | > 7.00
